Data published in patent US9545416B2 (Universite de Montreal, priority 2011, dated 2017).
“Also recorded” adds a separate entry of the source. Where two headings read alike, the source gives them in different places.

How the values were obtained:
eIF4E = molecular target: T1, eIF4E (Homo sapiens, UniProt P06730); experiment: Immunoprecipitation of labelled (3H/14C) ribavirin with eIF4E in living cells; assay type: binding
T1 construct: endogenous in cells; host or cells: parental FaDu, F10R and F100R resistant cells
Procedure: In total, it appears that these AML specimens have developed an “oncogene addiction” to eIF4E making them more sensitive to inhibition of eIF4E than specimens with normal eIF4E levels.
It was determined whether ^14C-ribavirin could immunoprecipitate with eIF4E in the F10R and F100R resistant cell lines.
Cells were treated for 24 hours with ^14C-ribavirin followed by cross-linking and immunoprecipitation and evaluated relative to IgG controls.

Parental FaDu cells = experiment: Cell number / growth assay, parental FaDu cells; assay type: cell-based
Procedure: (§1) (FIG. 6). Gli-1 knockdown experiments were performed in parallel.

F10R cells = experiment: Cell number / growth assay, F10R resistant cells; assay type: cell-based
Procedure: as §1

F100R cells = experiment: Cell growth assay, type 1 resistant F100R cells; assay type: cell-based; conditions: GDC-0449, type 1 resistant F100R cells
[1] = reported according to Roche; cited from earlier work
[2] = test system: Gli-1 overexpressing cells; experiment: Cell number assay, Gli-1 overexpressing FaDu cells; assay type: cell-based; conditions: 20 μM ribavirin
Procedure: as §1

[3] = test system: FaDu and THP1 cells and resistant F10R, F100R, T10R, T20R cell lines; experiment: Uptake of 3H-ribavirin in parental and resistant cell lines; assay type: cell-based; conditions: 0 to 16 hours
Gli-1 mRNA = Gli-1 mRNA levels in patient specimens (qRT-PCR); assay type: in vivo, human; conditions: two patients that did not respond (PD)
Description: For responding patients, in all cases Gli-1 mRNA levels were higher at resistance than during response.
The molecular features identified in present studies were examined to determine whether they were relevant to specimens from patients that received ribavirin monotherapy in the multi-centre phase II AML trial. For responding patients, all available specimens before treatment were monitored, during clinical response, upon the onset of relapse and in non-responders when possible. A total of ten specimens were examined including those from patients that enrolled in the monotherapy trial. Results from the trial, when closed, were 1 CR, 2 PR, 3 BR, 6 SD, 3 PD with 15 evaluable patients (Clinicaltrials.gov). Of these, samples from 10 patients were available for evaluation of molecular response. […] Gli-1 mRNA levels were monitored using qRT-PCR. […] (See above table).

ENT1 = ENT1 RNA levels in patients (RT-qPCR); assay type: in vivo, human; conditions: Patient 10 (BR), four cycles
Description: Results from RT-qPCR are normalised against multiple genes to ensure no changes in the normalised occurred as described.

MDR1 = MDR1 levels in patients; assay type: in vivo, human; conditions: Patient 10 (BR), four cycles
cyclin D1 and VEGF = experiment: Protein levels of eIF4E export and translation targets as a function of ribavirin treatment; assay type: cell-based
[4] = test system: ENT1, ADK or Gli-1 levels; experiment: Deep sequencing of 10R cells during ribavirin treatment; assay type: cell-based
Description: All deep sequencing in resistant cells is done in the absence of ribavirin.

eIF4E gene product = molecular target: T2, eIF4E gene product (Homo sapiens, UniProt P06730); experiment: Molecular analysis of eIF4E gene product activity in trial patients; assay type: in vivo; conditions: after 28 days of oral ribavirin, monotherapy trial
T2 construct: from tissue; host or cells: leukemia specimens of AML patients in the clinical trials
Description: In terms of clinical response, 1 CR (complete remission), 2 PR (partial remission), 3 BR (blast response), 6 SD (stable disease), 3PD (progressive disease) were observed out of 15 evaluable patients. […] A biphasic molecular response was observed, where initially the eIF4E gene product was dramatically re-distributed to the cytoplasm in patients that responded. This was followed by a drop in eIF4E RNA and protein levels (up to one 28 day cycle).

[5] = test system: relapsed/refractory M4/M5 AML
Description: The molecular features identified in present studies were examined to determine whether they were relevant to specimens from patients that received ribavirin monotherapy in the multi-centre phase II AML trial. For responding patients, all available specimens before treatment were monitored, during clinical response, upon the onset of relapse and in non-responders when possible. A total of ten specimens were examined including those from patients that enrolled in the monotherapy trial. […] Of these, samples from 10 patients were available for evaluation of molecular response. […] Gli-1 mRNA levels were monitored using qRT-PCR.

[6] = test system: FaDu and THP1 cells and resistant F10R, F100R, T10R, T20R cell lines; conditions: previous studies; cited from earlier work

T2 sequence (P06730 whole entry): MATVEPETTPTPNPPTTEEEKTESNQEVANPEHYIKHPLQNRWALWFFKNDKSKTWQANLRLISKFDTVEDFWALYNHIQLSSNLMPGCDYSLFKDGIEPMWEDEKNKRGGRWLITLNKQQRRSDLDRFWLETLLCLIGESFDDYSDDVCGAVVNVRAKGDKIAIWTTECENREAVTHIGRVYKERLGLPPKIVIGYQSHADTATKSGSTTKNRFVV

Which “ribavirin binding to eIF4E after GDC-0449 treatment” value (eIF4E; F10R cells) does the source give for CS(=O)(=O)c1ccc(C(=O)Nc2ccc(Cl)c(-c3ccccn3)c2)c(Cl)c1 [GDC-0449] here?
Its value is “increase in ribavirin binding to eIF4E”.

What about the reduction in growth (Parental FaDu cells; 3 nM GDC-0449 alone) of the same molecule?
The reduction in growth was 25%.

And the growth (F10R cells; 3 nM GDC-0449 alone, F10R cells)?
Its growth is “did not affect”.

And the growth (F100R cells)?
Its growth is “no effect”.

And the plasma levels [1]?
The plasma levels was 3 nM.

Which “immunoprecipitation of 14C ribavirin with eIF4E” value (eIF4E; F10R cell line) does the source give for NC(=O)c1ncn([C@@H]2O[C@H](CO)[C@@H](O)[C@H]2O)n1 [ribavirin, 1-[(2R,3R,4S,5R)-3,4-dihydroxy-5-(hydroxymethyl)oxolan-2-yl]-1H-1,2,4-triazole-3-carboxamide] here?
The value was “does not immunoprecipitate with eIF4E; also recorded: did not immunoprecipitate”.

What about the “immunoprecipitation of 14C ribavirin with eIF4E” value (eIF4E; F100R cell line) of the same molecule?
The value was “does not immunoprecipitate with eIF4E”.

And the “decrease in cell number” value (Parental FaDu cells; 10 μM ribavirin for 96 hours)?
The value was “about 50%”.

What about the “reduction of cell number” value (Parental FaDu cells; 20 μM ribavirin) of the same molecule?
The value was 50%.

What about the “cell numbers as % of the same cells without ribavirin” value (F10R cells; 20 μM ribavirin, RNAi knockdown of Gli-1 in F10R cells) of the same molecule?
Its value is “about 50%”.

And the growth (F10R cells; 20 μM ribavirin, siRNA luciferase treated F10R cells)?
The growth was “unaffected”.

What about the “cell number as % of the untreated Gli-1 overexpressing cells” value [2] of the same molecule?
The value was 95%.

And the 3H-ribavirin uptake ([3]; F10R cells)?
The 3H-ribavirin uptake was “indistinguishable from parental FaDu cells”.

And the 3H-ribavirin uptake ([3]; F100R, T10R and T20R cell lines)?
Its 3H-ribavirin uptake is “severe defects in ribavirin uptake”.

What about the “Gli-1 levels after 28 days of ribavirin” value (Gli-1 mRNA) of the same molecule?
Its value is “not lowered”.

What about the “reduction in ENT1 levels at relapse” value (ENT1) of the same molecule?
The value was 3 fold.

What about the “increase in MDR1 at relapse” value (MDR1) of the same molecule?
Its value is 17 fold.

What about the “protein levels of cyclin D1 and VEGF” value (cyclin D1 and VEGF; parental cell lines) of the same molecule?
Its value is “reduces levels of these proteins”.

And the “protein levels of cyclin D1 and VEGF” value (cyclin D1 and VEGF; resistant cell lines)?
The value was “no longer affects these”.

And the “ENT1, ADK or Gli-1 levels on addition of ribavirin” value [4]?
The value was “did not alter”.

What about the “mRNA export activity of the eIF4E gene product” value (eIF4E gene product) of the same molecule?
Its value is “substantially reduced”.

And the “number of patients with BR (blast response)” value ([5]; out of 15 evaluable patients)?
The value was 3.

And the “number of patients with CR (complete remission)” value ([5]; out of 15 evaluable patients)?
Its value is 1.

What about the “number of patients with PD (progressive disease)” value ([5]; out of 15 evaluable patients) of the same molecule?
Its value is 3.

And the “number of patients with PR (partial remission)” value ([5]; out of 15 evaluable patients)?
The value was 2.

What about the “number of patients with SD (stable disease)” value ([5]; out of 15 evaluable patients) of the same molecule?
Its value is 6.

What about the drop in blasts ([5]; patient 18 (SD), during response) of the same molecule?
Its drop in blasts is 20%.

What about the “change of plasma ribavirin levels” value (CR patient of combination trial after Ara-C lowered to 10 mg/day) of the same molecule?
The value was “near doubling”.

What about the ribavirin plasma levels (combination trial with subcutaneous low dose Ara-C) of the same molecule?
Its ribavirin plasma levels is 4 to 10 µM.

What about the ribavirin plasma levels (monotherapy trial, 2000 mg/day) of the same molecule?
Its ribavirin plasma levels is 20 to 30 µM.

What about the ribavirin plasma levels (monotherapy trial, 2800 mg/day) of the same molecule?
The ribavirin plasma levels was 20 µM.

And the “time of maximal uptake after ribavirin treatment” value [6]?
The value was 8 to 10 h.
